Experimental data reported in ChEMBL document CHEMBL1148032, “Hexaprenoid hydroquinones, novel inhibitors of the reverse transcriptase of human immunodeficiency virus type 1” (J Nat Prod, 1993).

Assays:
[1] = molecular target: Human immunodeficiency virus type 1 reverse transcriptase (Human immunodeficiency virus 1) (UniProt Q72547); assay: (§1) Inhibition of RNA dependent DNA polymerase activity of HIV1 BH10 recombinant reverse transcriptase p66/p51 assessed as residual enzyme activity by poly(rA)n.oligo(dT)12-18-directed incorporation of [3H]dTTP
[2] = molecular target: T1, Human immunodeficiency virus type 1 reverse transcriptase (Human immunodeficiency virus 1, UniProt Q72547); assay: as §1
[3] = molecular target: Human immunodeficiency virus type 1 reverse transcriptase (Human immunodeficiency virus 1) (UniProt Q72547); assay: (§2) Inhibition of DNA dependent DNA polymerase activity of HIV1 BH10 recombinant reverse transcriptase p66/p51 assessed as residual enzyme activity
[4] = molecular target: T1, Human immunodeficiency virus type 1 reverse transcriptase; assay: as §2
[5] = molecular target: T1, Human immunodeficiency virus type 1 reverse transcriptase; assay: Inhibition of RNase H activity of HIV1 BH10 recombinant reverse transcriptase p66/p51 assessed as residual enzyme activity […]

Row | SMILES | Inhibition [1] [µM] | IC50 [2] [µM] | Inhibition [3] [µM] | IC50 [4] [µM] | IC50 [5] [µM]
1 | CC1(C)CCC[C@]2(C)OC3CC[C@](C)(C4CC[C@]5(C)C4CC[C@]4(C)c6c(O)ccc(O)c6CC54)[C@]3(C)CCC12 (stereo not given in full) [TOXICOL B] | 11.1 | 3.7 | 56.2 | 8.2 | > 250
2 | C[C@@H]1CC=C2[C@@H](CCC[C@@]2(C)CC[C@@]2(C)C3=CCCC(C)(C)[C@H]3CC[C@@H]2C)[C@]1(C)Cc1cc(O)ccc1O | 11.1 | 2.8 | 44.4 | 4.2 | > 250
3 | C[C@@H]1CC=C2[C@@H](CCC[C@@]2(C)CC[C@@]2(C)C3=CCCC(C)(C)[C@H]3CC[C@@H]2C)[C@]1(C)Cc1cc(OS(=O)(=O)O)ccc1OS(=O)(=O)O [TOXIUSOL SODIUM] | 4.6 | 1.5 | 41.6 | 6.6 | > 250
4 | CC1(C)CCC[C@]2(C)OC3CC[C@](C)(C4CC[C@]5(C)C4CC[C@]4(C)C6=C(CC54)C(=O)C=CC6=O)[C@]3(C)CCC12 (stereo not given in full) | 28.6 | 13.2 | 54.5 | 4.5 | > 250
5 | CC1(C)CCC[C@]2(C)OC3CC[C@](C)(C4CC[C@]5(C)C4CC[C@]4(C)c6c(OS(=O)(=O)O)ccc(OS(=O)(=O)O)c6CC54)[C@]3(C)CCC12 (stereo not given in full) [TOXICOL A] | 6.5 | 3.1 | 5.2 | 2.7 | > 250

The next lines start with the values.

Row | Inhibition [1] [µM] | IC50 [2] [µM] | Inhibition [3] [µM] | IC50 [4] [µM] | IC50 [5] [µM] | SMILES
6 | 9.3 | 3.3 | 5 | 0.8 | > 250 | CC1=C(Cc2cc(OS(=O)(=O)O)ccc2OS(=O)(=O)O)[C@]2(C)CCC[C@@](C)(CC[C@@]3(O)[C@H](C)CC[C@@H]4OC(C)(C)CCC[C@@]43C)[C@H]2CC1 [SHAAGROCKOL C]
7 | 21.2 | 8.5 | 40 | 6.7 | > 250 | CC(=O)CC[C@@H]1[C@](C)(CC[C@@]2(O)[C@H](C)CC[C@@H]3OC(C)(C)CCC[C@@]32C)CCC[C@@]1(C)C(=O)Cc1cc(OS(=O)(=O)O)ccc1OS(=O)(=O)O [SHAAGROCKOL B]
8 | 18.1 | 2.5 | 14.7 | 1.4 | > 250 | CC1=C(Cc2cc(O)ccc2O)[C@]2(C)CCC[C@@](C)(CC[C@@]3(O)[C@H](C)CC[C@@H]4OC(C)(C)CCC[C@@]43C)[C@H]2CC1
